In ChEMBL document CHEMBL6182948 (J Med Chem, 2025):

Columns and labels:
A549/TR [1] = assay: Synergistic antiproliferative activity against human A549/Taxol cells assessed as combination index at 10 uM in presence of 0.05 uM paclitaxel by Chou-Talalay method; assay type: functional
[2] = AUC (0 to t) in male Sprague-Dawley rat at 10 mg/kg, po measured up to 24 hrs by LC-MS/MS analysis; assay type: ADME, organism-based; details: in vivo
A549/TR [3] = assay: Synergistic antiproliferative activity against human A549/Taxol cells assessed as combination index at 2.5 uM in presence of 0.05 uM paclitaxel by Chou-Talalay method; assay type: functional
[4] = MRT (0 to infinity) in male Sprague-Dawley rat at 10 mg/kg, po measured up to 24 hrs by LC-MS/MS analysis; assay type: ADME, organism-based; details: in vivo
[5] = MRT (0 to t) in male Sprague-Dawley rat at 2 mg/kg, iv measured up to 24 hrs by LC-MS/MS analysis; assay type: ADME, organism-based; details: in vivo
A549/TR [6] = assay: Synergistic antiproliferative activity against human A549/Taxol cells assessed as combination index at 20 uM in presence of 0.05 uM paclitaxel by Chou-Talalay method; assay type: functional
A549/TR [7] = assay: Inhibition of cell migration in human A549/Taxol cells assessed as wound closure at 5 uM measured after 24 hrs by scratch-wound healing assay relative to control; assay type: functional; design: scale not given: the % may be the effect or the level left
A549/TR [8] = assay: Synergistic antiproliferative activity against human A549/Taxol cells assessed as combination index at 10 uM in presence of 0.5 uM paclitaxel by Chou-Talalay method; assay type: functional
A549/TR [9] = assay: Synergistic antiproliferative activity against human A549/Taxol cells assessed as combination index at 10 uM in presence of 0.025 uM paclitaxel by Chou-Talalay method; assay type: functional
[10] = Half life in male Sprague-Dawley rat at 10 mg/kg, po measured up to 24 hrs by LC-MS/MS analysis; assay type: ADME, organism-based; details: in vivo
[11] = Tmax in male Sprague-Dawley rat at 10 mg/kg, po measured up to 24 hrs by LC-MS/MS analysis; assay type: ADME, organism-based; details: in vivo
[12] = MRT (0 to infinity) in male Sprague-Dawley rat at 2 mg/kg, iv measured up to 24 hrs by LC-MS/MS analysis; assay type: ADME, organism-based; details: in vivo
A549/TR [13] = assay: Inhibition of cell migration in human A549/Taxol cells assessed as suppression of wound closure measured after 24 hrs by scratch-wound healing assay; assay type: functional, cell-based; details: dose 2.5-5 µM
A549/TR [14] = assay: Synergistic antiproliferative activity against human A549/Taxol cells assessed as combination index at 5 uM in presence of 0.025 uM paclitaxel by Chou-Talalay method; assay type: functional
A549/TR [15] = assay: Synergistic antiproliferative activity against human A549/Taxol cells assessed as combination index at 5 uM in presence of 0.05 uM paclitaxel by Chou-Talalay method; assay type: functional
A549/TR [16] = assay: Inhibition of cell invasion in human A549/Taxol cells assessed as invasive cells at 2.5 uM incubated for 24 hrs by transwell invasion assay relative to control; assay type: functional; design: scale not given: the % may be the effect or the level left
A549/TR [17] = assay: Synergistic antiproliferative activity against human A549/Taxol cells assessed as combination index at 2.5 uM in presence of 0.025 uM paclitaxel by Chou-Talalay method; assay type: functional
[18] = MRT (0 to t) in male Sprague-Dawley rat at 10 mg/kg, po measured up to 24 hrs by LC-MS/MS analysis; assay type: ADME, organism-based; details: in vivo
A549/TR [19] = assay: Synergistic antiproliferative activity against human A549/Taxol cells assessed as combination index at 20 uM in presence of 0.1 uM paclitaxel by Chou-Talalay method; assay type: functional
[20] = Half life in male Sprague-Dawley rat at 2 mg/kg, iv measured up to 24 hrs by LC-MS/MS analysis; assay type: ADME, organism-based; details: in vivo
[21] = AUC (0 to infinity) in male Sprague-Dawley rat at 2 mg/kg, iv measured up to 24 hrs by LC-MS/MS analysis; assay type: ADME, organism-based; details: in vivo

- AUC(0-t) at 24 h [2]: 236 ng·h/mL
- MRT inf [4]: 2.42 h
- MRT last at 24 h [5]: 0.64 h
- half-life [10]: 1.12 h
- Tmax [11]: 1 h
- MRT inf [12]: 0.73 h
- MRT last at 24 h [18]: 2.32 h
- half-life [20]: 3.78 h
- AUC(0-inf) [21]: 2300 ng·h/mL
SMILES: O=C(Nc1cc(Cl)cc(Cl)c1)c1nc(-c2cccc(Cl)c2)cs1
- CI (A549/TR [1]): 0.2
- CI (A549/TR [3]): 0.08
- CI (A549/TR [6]): 0.38
- Activity (A549/TR [7]): 3%
- CI (A549/TR [8]): 1.14
- CI (A549/TR [9]): 0.86
- inhibition (A549/TR [13]): Dose-dependent-effect
- CI (A549/TR [14]): 0.71
- CI (A549/TR [15]): 0.16
- Activity (A549/TR [16]): 35.7%
- CI (A549/TR [17]): 0.75
- CI (A549/TR [19]): 0.63
